Test results published in EP3720857B1, “2-OXO-5H-CHROMENO[4,3-B]PYRIDINES FOR USE IN THE TREATMENT OF HEPATITIS B” (Galapagos NV, priority 2017, dated 2019).

Key:
[1] = test system: hepatitis virus B (HBV) infection; test: iCell hepatocytes assay, delayed assay (compounds added three days after HBV infection); type: cell-based; settings: for EC50: Hepatitis B virus, Hepatocyte, HBs ELISA
Method: The principle of the iCell hepatocyte 2.0 96 well assay is to evaluate the inhibitory effect of a test compound on hepatitis virus B (HBV) infection. In this assays the HBV core antigen (HBcAg) and/or extracellular antigen (HBeAg) and/or surface antigen (HBsAg) are used as a marker for HBV infection. Nuclei count may be used as an indication for compound toxicity.
In the standard assay set-up HBV infection and compound addition are performed on the same day, in the delayed assay the compounds are added three days after HBV infection. iCell hepatocytes 2.0 are human hepatocytes derived from induced pluripotent stem cells (iPSc) purchased from Cellular Dynamics international (CDI, R1027).
At day 0, iCell hepatocytes 2.0 (CDI, R1027) are thawed and seeded in collagen I coated 96well plates at 112 000c/well (100µL) in plating medium (RPMI supplemented with B27 supplement, 20 ng/mL recombinant human oncostatin M (OSM), 25µg/mL gentamicin, 0.1µM Dexamethasone and iCell medium supplement provided by CDI). Plates are incubated at 37°C, 5% CO2 and daily refreshed with plating medium for the following four days.
On day 5 and 6, plates are refreshed with 100µL maintenance medium (RPMI supplemented with B27 supplement, 25µg/mL gentamicin, 0.1µM Dexamethasone, and iCell medium supplement provided by CDI) and incubated at 37°C, 5% CO2 until the following day.
On day 7 (day of infection), the maintenance medium is removed from the assay plates and cells are infected with 50 µL of HBV mix (HBV virus, 4% PEG, 0% or 2% DMSO in maintenance medium). The assay plates were incubated overnight at 37°C, 5% CO2.
At day 1 post infection (day8), 50µL of HBV mix is removed from the assay plates and refreshed with 100 µL of maintenance medium. The assay plates are incubated at 37°C, 5% CO2 for three days.
At day 4 post infection (day 11) and day 7 post infection (day14), the supernatant is removed and 100 µL of compound series diluted 1/500 in maintenance medium is added to the assay plates (8 point serial dilution using 1/3 dilution steps in 100% DMSO or 8 point serial dilution using ¼ dilution steps, normalized for 0.2% DMSO. The assay plates were incubated at 37°C, 5% CO2 for three days.
At day 10 post infection (day 17), 100µL of supernatant is harvested and frozen to -20°C. The cells are fixed with 50 µL of 3.7% formaldehyde and incubated for 30 min at room temperature. After fixation, cells are washed four times with phosphate buffer saline (PBS) with the plate washer (Select 405, microplate washer, Biotek) and subjected to HBc staining. harvested supernatant is used for HBe and/or HBs ELISA.
The assay plates are blocked with blocking buffer (2% FBS, 3% BSA, 0.2% TritonX100 in PBS) for 1 h at room temperature.
After blocking, the assay plates are tapped manually and incubated with 50 µL diluted primary antibody (1/700 Rabbit-anti-HBc Ag, Dako, B0586 or 1/350 Rabbit-anti-HBc Ag, Invitrogen, PA516368) in blocking buffer and incubated for 90 min at room temperature.
After 4 washes of PBST (1XPBS + 0.05% Tween) with the plate washer, the assay plates are incubated with 100 µL of secondary antibody (Donkey-anti-rabbit Alexa 488, Lifetechnologies, A21206) 1/500 diluted in blocking buffer and incubated for 60 min at room temperature in the dark, then washed 4 times with PBST on the plate washer and incubated with 100µL of DAPI (Sigma D9542, stock 5mg/mL) 1/10000 diluted in PBS for 15-30 min at room temperature in the dark.
Finally, the assay plates are read out on a InCell Analyzer 2200 (GE Healthcare). […]
After blocking, 30 µL of sample and HBe Ag standard (recombinant hepatitis B virus E antigen protein, 4mg/mL, Abcam, ab91273) are added to the plate. The HBe Ag standard is 1/3 diluted in blocking buffer starting from 1.25µg/mL. A vehicle control is also included. The plate is incubated for 30 min at room temperature.
After sample incubation, the plates are washed 4 times with PBST on a platewasher followed by 2 washed of PBS. […]

[2] = test system: hepatitis virus B (HBV) infection; test: HepG2 NTCP assay (HBcAg staining as marker of HBV infection); type: cell-based; settings: HepG2-NTCP cells infected with HBV, HBV core antigen (HBcAg) as marker of infection
Outline: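 HepG2-NTCP cells were infected with HBV (4% PEG, 1% DMSO) in the presence of compound overnight, then re-dosed and incubated 5 days at 37 °C. HBcAg immunofluorescence was imaged, with DAPI nuclei count taken as toxicity. Ten-point 1/3 dilutions gave % inhibition against 0.2% DMSO vehicle and 100 nM Myrcludex B, with dose-response curves fitted.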

SMILES: COCCCOc1cc2c(cc1Cl)-c1c(cc(C(=O)O)c(=O)n1C1CCC1)C(C(C)C)O2 (stereo not drawn) [Compound 17, 9-chloro-1-cyclobutyl-5-isopropyl-8-(3-methoxypropoxy) -2-oxo-5H-chromeno[4,3-b]pyridine-3-carboxylic acid]
- Delayed assay HBs ELISA % inhibition [1]: +++ (75-100%)
- EC50 [1]: 0.001 to 20 nM
- IC50 [2]: 0.001 to 1 nM

SMILES: COc1cc2c(cc1OC)-c1c(cc(C(=O)O)c(=O)n1C1CC1)C(C(C)C)O2 (stereo not drawn) [Compound 3, 1-cyclopropyl-5-isopropyl-8,9-dimethoxy-2-oxo-5H-chromeno[4,3-b]pyridine-3-carboxylic acid]
- Delayed assay HBs ELISA % inhibition [1]: +++ (75-100%)
- EC50 [1]: > 50 nM
- IC50 [2]: 1 to 20 nM

SMILES: COCCCOc1cc2c(cc1Cl)-c1c(cc(C(=O)O)c(=O)n1C1CC1)C(C1(C)COC1)O2 (stereo not drawn) [Compound 2, 9-chloro-1-cyclopropyl-8-(3-methoxypropoxy)-5-(3-methyloxetan-3-yl)-2-oxo-5H-chromeno[4,3-b]pyridine-3-carboxylic acid]
- Delayed assay HBs ELISA % inhibition [1]: ++ (50-75%)
- EC50 [1]: 0.001 to 20 nM
- IC50 [2]: 0.001 to 1 nM

SMILES: COCCCOc1cc2c(cc1Cl)-c1c(cc(C(=O)O)c(=O)n1C1CC1)[C@@H](C1(C)COC1)O2 [Compound 47, (5S)-9-chloro-1-cyclopropyl-8-(3-methoxypropoxy)-5-(3-methyloxetan-3-yl)-2-oxo-5H-chromeno[4,3-b]pyridine-3-carboxylic acid]
- Delayed assay HBs ELISA % inhibition [1]: ++ (50-75%)
- EC50 [1]: 22 to 50 nM
- IC50 [2]: 1 to 20 nM
